Measured values reported in US4241083A, “Germicidal composition for agriculture and horticulture” (priority 1978, dated 1980).

What was measured:
Erysiphe cichoracearum = experiment: Prevention effect for powdery mildew on eggplants (Ex. 23); format: in vivo; conditions: emulsion; for Germicidal damage to seedlings: eggplant seedlings; for Percentage of leaf area with disease spots / Percentage of leaves attacked with the disease / Prevention value per leaf (Perfect prevention = 100): third or ninth days, read fifteenth day after inoculation
Experimental: The emulsion was prepared by blending 25 g of ethyl 2-(2-hydroxyethylamino)-3-benzoylpropionate, 25 ml of isopropanol, 3 g of Demol T (formalin condensed naphthalenesulfonate available from Kao Sekken Inc.), 2 g of Emal 10 (sodium lauryl sulphate available from Kao Sekken Inc.) and 45 g of water.
The prevention effect of the emulsion prepared above for powdery mildew on eggplants caused by Erysiphe cichoracearum was examined in the following manner.
Eggplant seedlings of Shinkitsushin variety planted in sections in two rows of three were inoculated with the above germ by brushing on spores from other eggplant leaf attacked with the powdery mildew.
An aqueous solution of ethyl 2-(2-hydroxyethylamino)-3-benzoylpropionate (2000 ppm and 2500 ppm) was sprayed on the test plant on the third or ninth days after the seedlings were inoculated with the germ by means of glass sprayer.
(§1) The leaf area on which powdery mildew spots appeared was measured on the fifteenth day after the seedlings were inoculated with the germ. The spotted area is expressed as a prevention value.

[1] = Toxicity, LD50 for a mouse; conditions: in vivo
Toxicity, LD50 for a rat = conditions: in vivo
Sphaerotheca fuliginea = experiment: Prevention effect for powdery mildew on cucumbers (Ex. 20, 21); format: in vivo; conditions: Table 6; for Germicidal damage to seedlings: cucumber seedlings; for Percentage of leaf area with disease spots / Percentage of leaves attacked with the disease / Prevention value per leaf (Perfect prevention = 100): third and ninth days, read fifteenth day after inoculation
Experimental: The prevention effect for powdery mildew on cucumbers caused by Sphaerotheca fuliginea was examined in the following manner.
Cucumber seedlings (bifoliate age) of Tokiwa Hikari No. 3 (p type) variety planted in sections of two rows of three were inoculated with the above germ by brushing on spores from a cucumber leaf attacked with powdery mildew. […]
The leaf area on which powdery mildew spots appeared was measured on the fifteenth day after the seedlings were inoculated with the germ. The spotted area is expresses as a prevention value.
The same experiment as Example 20 was carried out except that isopropyl 2-(2-hydroxyethylamino)-3-benzoyl-propionate hydrochloride was used instead of ethyl 2-(2-hydroxyethylamino)-3-benzoylpropionate hydrochloride.

Valsa ceratosperma = experiment: Length of disease spots on cut apple branches immersed in germicide before inoculation (Ex. 16); format: in vivo; conditions: 25° C.
Experimental: Branches of Delicious apple (branch diameter: about 1 cm. thick) grown for 1-2 years were cut to 10 cm. length. The cut branches were dried in a low temperature chamber (3° C.) until the water content of the cut branches became 50%. The dried cut branches were immersed in an aqueous solution of ethyl 2-(2-hydroxyethylamino)-3-benzoylpropionate hydrochloride (500 ppm, 1000 ppm and 2500 ppm) for one minute and then dried.
Each cut branch was end bored by a white heated 8 mm diameter cork borer. Valsa ceratosperma, previously cultured for four days on a potato dextrose-agar culture medium, was introduced into the branch by inoculating the branch with the Valsa ceratosperma containing culture by means of the sterilized cork borer. The branches prepared in this way were placed on wet filter paper spread in a polyethylene tray. The tray was inserted into a polyethylene bag which was sealed and then the bag was put into a thermostat (25° C.) for various controlled times.
After removal from the thermostat, the length of disease spots on each branch was measured.
A similar experiment for comparison was carried out using Benomyl, i.e. methyl-1-(buthylcarbamoyl)-2-benzimidazole carbamate as the germicide. The results of the comparative experiment and also a control experiment, in which the dried cut branches were not immersed in germicide (blank), are also shown in Table 2.

apple canker = conditions: cited from earlier work
Sphaerotheca humuli = experiment: Prevention effect for powdery mildew on strawberries (Ex. 22); format: in vivo; conditions: for Germicidal damage to seedlings: strawberry seedlings; for Percentage of leaf area with disease spots / Percentage of leaves attacked with the disease / Prevention value per leaf (Perfect prevention = 100): third and ninth days, read fifteenth day after inoculation
Text: The prevention effect for powdery mildew on strawberries caused by Sphaerotheca humuli was examined in the following manner.
Strawberry seedlings (3-4 leaves) of Danar variety dug up and planted in a pot in two row of three without drying the roots was inoculated with the above germ by brushing on the spores from a strawberry leaves attacked with powdery mildew.
An aqueous solution of sec-butyl 2-(2-hydroxyethylamino)-3-benzoylpropionate hydrochloride was sprayed on the test plant on the third and ninth days after the seedlings were inoculated with the germ.
as §1

## CCOC(=O)C(CC(=O)c1ccccc1)NCCO (stereo not drawn) [ethyl 2-(2-hydroxyethylamino)-3-benzoylpropionate]
Erysiphe cichoracearum; 2000 ppm
  Germicidal damage to seedlings: none
  Percentage of leaf area with disease spots: 0%
  Percentage of leaves attacked with the disease: 0%
  Prevention value per leaf (Perfect prevention = 100): 100
Erysiphe cichoracearum; 2500 ppm
  Germicidal damage to seedlings: none
  Percentage of leaf area with disease spots: 0%
  Percentage of leaves attacked with the disease: 0%
  Prevention value per leaf (Perfect prevention = 100): 100
[1]
  LD50: 7600 mg/kg
Toxicity, LD50 for a rat
  LD50: 4790 mg/kg

## CC(C)OC(=O)C(CC(=O)c1ccccc1)NCCO.Cl (stereo not drawn) [isopropyl 2-(2-hydroxyethylamino)-3-benzoyl-propionate hydrochloride]
Sphaerotheca fuliginea; 1500 ppm
  Germicidal damage to seedlings: none
  Percentage of leaf area with disease spots: 8.9%
  Percentage of leaves attacked with the disease: 55.6%
  Prevention value per leaf (Perfect prevention = 100): 88.5
Sphaerotheca fuliginea; 2000 ppm
  Germicidal damage to seedlings: none
  Percentage of leaf area with disease spots: 0%
  Percentage of leaves attacked with the disease: 0%
  Prevention value per leaf (Perfect prevention = 100): 100
Sphaerotheca fuliginea; 2500 ppm
  Germicidal damage to seedlings: none
  Percentage of leaf area with disease spots: 0%
  Percentage of leaves attacked with the disease: 0%
  Prevention value per leaf (Perfect prevention = 100): 100

## CCCCNC(=O)n1c(NC(=O)OC)nc2ccccc21 [methyl-1-(buthylcarbamoyl)-2-benzimidazole carbamate, reference compound]
Valsa ceratosperma; 500 ppm, after 3 days
  Length of disease spot: 1.0 mm
Valsa ceratosperma; 500 ppm, after 5 days
  Length of disease spot: 1.0 mm
Valsa ceratosperma; 500 ppm, after 7 days
  Length of disease spot: 1.8 mm
Valsa ceratosperma; 1000 ppm, after 3 days
  Length of disease spot: 0.5 mm
Valsa ceratosperma; 1000 ppm, after 5 days
  Length of disease spot: 0.5 mm
Valsa ceratosperma; 1000 ppm, after 7 days
  Length of disease spot: 1.0 mm
Valsa ceratosperma; 2500 ppm, after 3 days
  Length of disease spot: 0 mm
Valsa ceratosperma; 2500 ppm, after 5 days
  Length of disease spot: 0 mm
Valsa ceratosperma; 2500 ppm, after 7 days
  Length of disease spot: 0 mm
Apple canker
  effect after the canker attacks: can only weakly prevent the progress of the disease

## CCC(C)OC(=O)C(CC(=O)c1ccccc1)NCCO.Cl (stereo not drawn) [sec-butyl 2-(2-hydroxyethylamino)-3-benzoylpropionate hydrochloride]
Sphaerotheca humuli; 1000 ppm
  Germicidal damage to seedlings: none
  Percentage of leaf area with disease spots: 46.1%
  Percentage of leaves attacked with the disease: 83.3%
  Prevention value per leaf (Perfect prevention = 100): 40.4
Sphaerotheca humuli; 2000 ppm
  Germicidal damage to seedlings: none
  Percentage of leaf area with disease spots: 0%
  Percentage of leaves attacked with the disease: 0%
  Prevention value per leaf (Perfect prevention = 100): 100
Sphaerotheca humuli; 3000 ppm
  Germicidal damage to seedlings: none
  Percentage of leaf area with disease spots: 0%
  Percentage of leaves attacked with the disease: 0%
  Prevention value per leaf (Perfect prevention = 100): 100

## COC(=O)NC(=S)Nc1ccccc1NC(=S)NC(=O)OC [thiophanate methyl, 1,2-bis(3-methylcarbonyl-2-thioureido)]
Apple canker
  effect after the canker attacks: can only weakly prevent the progress of the disease
